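Results reflect a 48-hour exposure of cells in 96-well plates to compound at five concentrations. The concentration for 50% growth inhibition is given as GI50.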 The source made the active and inactive calls. Rule as the data show it: active = GI50 up to about 1.1 µM and inactive = higher.
Experiments:
Assay in all cases: growth of human tumour cells (NCI), 48 h
CAKI-1 = test system: CAKI-1
CCRF-CEM = test system: CCRF-CEM
HCT-116 = test system: HCT-116
HOP-62 = test system: HOP-62
HT-29 = test system: HT-29
K562 = test system: K562
Malme-3M = test system: Malme-3M
NCI-H460 = test system: NCI-H460
OVCAR-3 = test system: OVCAR-3
SF-295 = test system: SF-295
SK-MEL-28 = test system: SK-MEL-28
SK-MEL-2 = test system: SK-MEL-2
SK-OV-3 = test system: SK-OV-3
SN12C = test system: SN12C
SNB-75 = test system: SNB-75
SR = test system: SR
SW-620 = test system: SW-620
U-251 = test system: U-251
UACC-62 = test system: UACC-62
NCI-H522 = test system: NCI-H522

Measured: GI50

COC(=O)[C@H]1COC(=S)N1C(=O)[C@@H](C)[C@H](O)C(C)C
inactive: CAKI-1 > 100 µM | CCRF-CEM > 100 µM | HCT-116 > 100 µM | HOP-62 > 100 µM | HT-29 > 100 µM | K562 > 100 µM | Malme-3M > 100 µM | NCI-H460 > 100 µM | OVCAR-3 > 100 µM | SF-295 > 100 µM | SK-MEL-28 > 100 µM | SK-MEL-2 > 100 µM | SK-OV-3 > 100 µM | SN12C > 100 µM | SNB-75 42 µM | SR > 100 µM | SW-620 > 100 µM | U-251 > 100 µM | UACC-62 > 100 µM

O=C(CC1Sc2ccccc2NC1=O)Nc1cc(Cl)ccc1Cl (stereo unspecified)
inactive: CAKI-1 > 100 µM | CCRF-CEM 31.2 µM | HCT-116 > 100 µM | HT-29 > 100 µM | K562 > 100 µM | Malme-3M > 100 µM | NCI-H460 > 100 µM | OVCAR-3 > 100 µM | SF-295 > 100 µM | SK-MEL-28 > 100 µM | SK-MEL-2 > 100 µM | SN12C > 100 µM | SNB-75 33.4 µM | SR 27.3 µM | SW-620 > 100 µM | U-251 49.9 µM | UACC-62 > 100 µM

CC1(C)N(OC2CCCCO2)C(c2ccccc2)C(c2ccccc2)=[N+]1[O-] (stereo unspecified)
inactive: CAKI-1 > 100 µM | CCRF-CEM 60.5 µM | HCT-116 60.3 µM | HOP-62 > 100 µM | HT-29 > 100 µM | K562 58.9 µM | Malme-3M > 100 µM | NCI-H460 66.7 µM | OVCAR-3 54.3 µM | SF-295 41 µM | SK-MEL-28 > 100 µM | SK-MEL-2 51.1 µM | SK-OV-3 > 100 µM | SN12C > 100 µM | SNB-75 20.1 µM | SR 27 µM | SW-620 > 100 µM | U-251 > 100 µM | UACC-62 > 100 µM

CCOC(=O)c1c(NC(=O)c2ccc(OC)cc2)sc2c1CCCC2
inactive: CAKI-1 > 100 µM | CCRF-CEM > 100 µM | HCT-116 > 100 µM | HOP-62 > 100 µM | HT-29 > 100 µM | K562 > 100 µM | NCI-H460 > 100 µM | OVCAR-3 > 100 µM | SF-295 > 100 µM | SK-MEL-28 > 100 µM | SK-MEL-2 > 100 µM | SN12C > 100 µM | SR > 100 µM | SW-620 > 100 µM | U-251 > 100 µM | UACC-62 > 100 µM

NNC(=O)Cc1cccnc1
inactive: CAKI-1 > 100 µM | CCRF-CEM > 100 µM | HCT-116 > 100 µM | HOP-62 > 100 µM | HT-29 > 100 µM | K562 > 100 µM | Malme-3M > 100 µM | NCI-H460 > 100 µM | NCI-H522 > 100 µM | OVCAR-3 > 100 µM | SF-295 > 100 µM | SK-MEL-28 > 100 µM | SK-MEL-2 > 100 µM | SK-OV-3 > 100 µM | SN12C > 100 µM | SNB-75 > 100 µM | SW-620 > 100 µM | U-251 > 100 µM | UACC-62 > 100 µM

Cc1cccc(C(C)(C)C)c1NC(=O)CC1C(=O)Nc2ccccc2S1(=O)=O (stereo unspecified)
inactive: CAKI-1 16.8 µM | CCRF-CEM 2.34 µM | HCT-116 10.4 µM | HT-29 5.25 µM | K562 2.84 µM | Malme-3M 11.8 µM | NCI-H460 11 µM | OVCAR-3 5.55 µM | SF-295 7.1 µM | SK-MEL-28 14.1 µM | SK-MEL-2 9.12 µM | SN12C 12.3 µM | SNB-75 12.5 µM | SR 3.21 µM | SW-620 10.4 µM | U-251 8.28 µM | UACC-62 5.06 µM

C[C@]12CCc3nonc3C1CC[C@@H]1C2CC[C@]2(C)NC(=O)CCC12 (stereo partly specified)
inactive: CAKI-1 > 100 µM | CCRF-CEM > 100 µM | HCT-116 > 100 µM | HOP-62 > 100 µM | HT-29 > 100 µM | K562 > 100 µM | Malme-3M > 100 µM | NCI-H460 > 100 µM | NCI-H522 > 100 µM | OVCAR-3 > 100 µM | SF-295 > 100 µM | SK-MEL-28 > 100 µM | SK-MEL-2 > 100 µM | SK-OV-3 > 100 µM | SN12C > 100 µM | SNB-75 > 100 µM | SW-620 > 100 µM | U-251 > 100 µM | UACC-62 > 100 µM

O=S1(=O)OCCOS(=O)(=O)C1S(=O)(=O)c1cccc2ccccc12
inactive: CAKI-1 > 100 µM | CCRF-CEM > 100 µM | HCT-116 24 µM | HOP-62 > 100 µM | HT-29 52.7 µM | K562 41.4 µM | Malme-3M > 100 µM | NCI-H460 54.6 µM | OVCAR-3 > 100 µM | SF-295 > 100 µM | SK-MEL-28 > 100 µM | SK-MEL-2 > 100 µM | SN12C > 100 µM | SR > 100 µM | SW-620 70.5 µM | U-251 > 100 µM

COc1ccc(-n2c(=O)n(C)c(=O)n2-c2ccc(OC)cc2)cc1
inactive: CAKI-1 > 100 µM | CCRF-CEM > 100 µM | HCT-116 98.6 µM | HOP-62 > 100 µM | HT-29 > 100 µM | K562 > 100 µM | NCI-H460 > 100 µM | OVCAR-3 > 100 µM | SF-295 > 100 µM | SK-MEL-28 > 100 µM | SK-MEL-2 > 100 µM | SK-OV-3 > 100 µM | SN12C > 100 µM | SNB-75 56.6 µM | SR > 100 µM | SW-620 > 100 µM | U-251 > 100 µM | UACC-62 > 100 µM

N#C/N=C1\NC(Cc2ccccc2)C(=O)N1CCc1c[nH]c2ccccc12 (stereo unspecified)
inactive: CCRF-CEM 25.5 µM | HCT-116 20.6 µM | HOP-62 28.1 µM | HT-29 34.9 µM | K562 23.9 µM | OVCAR-3 33.6 µM | SF-295 32.4 µM | SK-MEL-28 23.6 µM | SK-OV-3 26.3 µM | SN12C 29.9 µM | SNB-75 8.87 µM | SR 33.7 µM | SW-620 34.9 µM | UACC-62 23.2 µM

COC(=O)C(c1n[nH]c2ccccc12)C(C(=O)OC)c1n[nH]c2ccccc12 (stereo unspecified)
inactive: CCRF-CEM 24.5 µM | HCT-116 41.4 µM | HOP-62 > 100 µM | HT-29 64.4 µM | K562 28 µM | Malme-3M 42.7 µM | NCI-H460 58.3 µM | OVCAR-3 41.8 µM | SF-295 > 100 µM | SK-MEL-28 41.7 µM | SK-OV-3 > 100 µM | SN12C 31.1 µM | SNB-75 50.1 µM | SR 30.4 µM | SW-620 18.3 µM | U-251 > 100 µM | UACC-62 61.1 µM

Source: ChEMBL document CHEMBL1201862, “PubChem BioAssay data set” (2004)
